Source: a melting point compilation (Tetko et al.; mined from patent text by program, amines drawn as free bases though some values may be those of a salt)

Compared with `OC1(c2ccc(Cl)cc2)CCN(CCCOc2ccc(F)cc2)CC1`, `CC#CCOc1ccc(SC(C(=O)NO)c2ccc(F)cc2)cc1` (centres undefined) is lower in melting point: 134 to 135 °C for the first, 91.1 °C for the second.

First: CC1CC(=O)NN=C1c1ccc(N2CCC(CN3C(=O)c4ccccc4C3=O)CC2)c([N+](=O)[O-])c1 (centres undefined)
Second: CCOC(=O)c1nnc2n1-c1sc(Cl)cc1C(c1ccccc1[N+](=O)[O-])=NC2
The melting point of the first is higher: 256 to 258 °C for the first, 143 to 145 °C for the second.

Compared with `CCC1=C(C(=O)OC)C(c2ccc(F)cc2Cl)N=C(c2cscn2)N1` (centres undefined), `COc1nnc(C)c(-c2ccc(Cl)nc2)c1-c1c(F)cc(F)cc1F` is lower in melting point: 144 to 147 °C for the first, 123 to 124 °C for the second.

First: Cc1ccccc1CC(=NC#N)NC(NC(=O)Cc1ccc2c(c1)OCCO2)C(C)(C)C (centres undefined)
Second: CC(C)(C)OC(=O)[C@@](C)(C#N)[C@H](c1ccccc1C(F)(F)F)c1cccc2ccccc12 (racemic)
The melting point of the first is higher: 180 to 181 °C for the first, 159 to 161 °C for the second.

First: CCOC(=O)c1cn(C2CC2)c2nc(N3C[C@@H](CNC(C)=O)[C@@H](Cl)C3)c(F)cc2c1=O (relative stereo)
Second: CCOC(=O)c1cccc2c1N(CCN1CC=C(c3c[nH]c4cc(F)ccc34)CC1)S(=O)(=O)N(C(C)C)C2
The melting point of the first is higher: 213 to 214 °C for the first, 95 to 97 °C for the second.

Compared with `COC(=O)c1cc(=O)c2cc(C(F)(F)F)ccc2[nH]1`, `CC(CC(=O)c1cccc(C(F)(F)F)c1)C(=O)O` (centres undefined) is lower in melting point: 289 to 291 °C for the first, 90 to 91 °C for the second.

First: O=C1Nc2ccc(Br)cc2C(c2ccccc2)=NC1OC(=O)C(F)(F)F (centres undefined)
Second: Oc1cc(Br)ccc1/C=N/c1ccccc1
The melting point of the first is higher: 181 to 183 °C for the first, 129 °C for the second.

First: O=C(O)CC(NC(=O)c1ccc2c(c1)CCC(=NNC1=NCCN1)C1=C2CCC1)c1cccnc1 (centres undefined)
Second: O=C1CCCC2=C1C(c1cccc(Br)c1)C1=C(CCCC1)N2 (centres undefined)
The melting point of the first is lower: 126 to 128 °C for the first, 258 to 260 °C for the second.

First: COc1ccccc1NC(=O)Nc1nc(NCc2cccs2)nc(N(CCC(=O)O)Cc2cccc(C)c2)n1
Second: COc1cccc(NC(=O)c2ccc(C)cc2)c1C(C)=O
The melting point of the first is higher: 89 to 95 °C for the first, 48 °C for the second.

Compared with `CC(C)C(C)(C#N)N1C(=O)c2cccc(O)c2C1=O` (centres undefined), `CC(C)OC(=O)C=Cc1cc(N2C(=O)CC(C(F)(F)F)N(C)C2=O)ccc1Cl` (centres undefined) is higher in melting point: 110 to 111 °C for the first, 200 to 202 °C for the second.

First: CN1CCN(c2ncnc3oc(-c4ccc(N)nc4)c(-c4ccccc4)c23)CC1
Second: CO/C(=C\c1ccc2oc(Cc3nc(-c4ccccc4)oc3C)cc2c1)C(N)=O
The melting point of the first is higher: 229 to 231 °C for the first, 160 to 164 °C for the second.

First: O=C1NCc2c1cc1ccc3c(c1c2-c1ccc(OCc2ccccc2)cc1)OCO3
Second: CCn1c(C)c(C2(c3c(-c4ccc(OC)cc4)nc4sccn34)OC(=O)c3cccnc32)c2ccccc21 (centres undefined)
The melting point of the first is higher: 257 to 260 °C for the first, 115 to 118 °C for the second.

First: O=C(Nc1ccc2ccc(-c3ccc(Cl)cc3)nc2n1)c1ccccc1
Second: CC(C(=O)O)c1ccc2c(-c3ccc(Cl)cc3)noc2c1 (centres undefined)
The melting point of the first is lower: 156 to 158 °C for the first, 176 to 179 °C for the second.

First: O=[N+]([O-])c1ccc(Oc2ccc(CBr)cc2)cc1
Second: CCOC(=O)C(=O)Cc1cc(=O)n(Cc2ccc(Cl)cc2)c2ccccc12
The melting point of the first is lower: 68 to 70 °C for the first, 180 to 182 °C for the second.

Compared with `O=C(Nc1cccc(Cl)c1)N[C@H]1C[C@H](C(=O)O)Nc2cc(Cl)cc(Cl)c21` (relative stereo), `NC(=O)c1cc(NCc2cccc(Cl)c2)c([N+](=O)[O-])cc1[N+](=O)[O-]` is higher in melting point: 173 to 175 °C for the first, 178 to 180 °C for the second.

`O=C1CCC2=C1C(c1ccc(F)c(Br)c1)C1=C(CCS1)N2` (centres undefined) and `O=c1[nH]c2[nH]c3ccc(Cl)cc3c2c2c(F)cccc12` cannot be ordered by melting point: > 260 °C for the first, > 300 °C for the second.

First: Cn1c(=O)ccc2cc(COc3cccc(C4(C#N)CCOCC4)c3)ccc21
Second: COc1ccc2c(c1)cc1cnc(Nc3ccc(N4CCOCC4)cc3OC)nn12
The melting point of the first is lower: 149 to 150 °C for the first, 152 to 164 °C for the second.

Compared with `Nc1cccc(CNC(=O)c2[nH]c3ccc(Cl)cc3c2S(=O)(=O)c2ccccc2)c1`, `CCOC(=O)c1cccc2c1Cc1c-2[nH]c2ccc(Cl)cc12` is lower in melting point: 247 to 249 °C for the first, 202 to 204 °C for the second.

First: Nc1ccc2c(c1)N(C1CCN(CCc3ccc(F)cc3)CC1)CC2
Second: Cc1ccc(CN2CCc3ccc(C(=O)CCC(=O)N4CCC(c5ccc(Cl)cc5)CC4)cc3CC2)cc1
The melting point of the first is lower: 104 to 106 °C for the first, 137 to 138 °C for the second.

Compared with `CCCCNC(=O)c1cc([N+](=O)[O-])cnc1C`, `CCOC(=O)CC(=O)c1ccnc(F)c1` is lower in melting point: 98 to 99 °C for the first, 66 to 67 °C for the second.

First: CCOC(=O)C(=O)c1cn(Cc2ccc(C(C)(C)C)cc2)c2cc(-c3ccc(C(F)(F)F)cc3)ccc12
Second: CCCc1nc(NS(=O)(=O)c2ccc(C(C)(C)C)cc2)c(-c2ccc(C)cc2)c(OCCO)n1
The melting point of the first is higher: 164 to 165 °C for the first, 133 to 134 °C for the second.

First: Cc1cn2c(=O)c3c(Cl)cccc3nc2s1
Second: Cc1cccc2nc(-c3ccc(Cl)cc3)c(C(N)=O)c(=O)n12
The melting point of the first is higher: 235 to 236 °C for the first, 202 to 204 °C for the second.

First: Cc1noc(=O)c2ccc(NC(=O)C(=O)CC3(c4ccccc4)CC3)cc12
Second: COc1cc2c3c(cccc3c1)C(=O)c1ccccc1-2
The melting point of the first is lower: 155 to 156 °C for the first, 168 to 169 °C for the second.

First: CN1CCC2(CC1)OCc1ccccc12
Second: COc1ccc2c(c1)C1Cc3ccccc3C1N2C (centres undefined)
The melting point of the first is higher: 76 to 77 °C for the first, 72 °C for the second.

First: N#Cc1nc(C=Cc2cnn(-c3c(Cl)cc(C(F)(F)F)cc3Cl)n2)[nH]c1C#N
Second: FC(F)(F)CNC1=NN(c2ccc(Cl)c(Cl)c2)CC1
The melting point of the first is higher: 111 to 112 °C for the first, 93 to 94 °C for the second.

First: CC(=O)N1CCc2ccc(Cl)c(Cl)c2C1
Second: NC(=O)N1CCc2cc(S(N)(=O)=O)sc2C1
The melting point of the first is lower: 99.5 to 100 °C for the first, 205 to 208 °C for the second.

First: CCOCc1nc2c(N)nc3ccccc3c2n1CC1(N)CCCCC1
Second: CCCCc1nc2cccc(O)c2n1Cc1ccc(-c2ccccc2-c2nnn[nH]2)cc1
The melting point of the first is lower: 166 to 168 °C for the first, 186 to 188 °C for the second.

First: CCOCC(=O)Nc1ncc(Br)s1
Second: CCOC(=O)c1c(Nc2c(C)cc(Br)cc2C)n[nH]c1C
The melting point of the first is lower: 100 to 102 °C for the first, 168 to 196 °C for the second.

First: O=C(NCCO)/C(=C/c1ccc(OCC(F)(F)F)cc1)NC(=O)c1ccc(OCCC2CC2)cc1
Second: CCCCOCCOc1ccc(-c2ccc3c(c2)C=C(C(=O)O)CCN3CCCOC)cc1
The melting point of the first is higher: 173 to 175 °C for the first, 99 to 101 °C for the second.

First: O=C(O)c1cc2c(cc1[N+](=O)[O-])OCO2
Second: NCCn1c(=O)nc(-c2ccc3c(c2)OCO3)c2cc3c(cc21)OCO3
The melting point of the first is higher: 160 to 163 °C for the first, 115 to 120 °C for the second.

Compared with `O=C(C=C1CCCN1)c1ccccc1`, `CON(C)C(=O)NC(CS)Cc1ccccc1` (single isomer, unassigned; (+)) is lower in melting point: 115 to 116 °C for the first, 50 °C for the second.

First: O=c1nc(-c2ccc(Br)cc2)c2c(=O)nc(-c3ccc(Br)cc3)c1=2
Second: CCCc1nc(C)n2[nH]c(=O)nc2c1Cc1ccc(-c2ccccc2C#N)cc1
The melting point of the first is higher: > 400 °C for the first, 215 to 216 °C for the second.

First: CC(=O)Nc1nc(O)c2cc(I)cnc2n1
Second: COc1cc(OC)nc(NC(=O)NS(=O)(=O)c2c(Cl)cccc2Cn2cncn2)n1
The melting point of the first is higher: > 280 °C for the first, 220 to 221 °C for the second.

Compared with `N#CCCCCC(=NO)c1ccc(Br)cc1`, `CCC(=O)C(=Cc1cccc(C#N)c1)C(=O)CC` is lower in melting point: 86.5 to 88 °C for the first, 51 to 52 °C for the second.

Compared with `CCC(C(=O)c1ccc(Cl)cc1)n1ncn(-c2ccc(N3CCN(c4cc(C)cc(C)n4)CC3)nc2)c1=O` (centres undefined), `O=C(O)Cc1cc(C(=O)c2ccc(Cl)cc2)ccc1O` is higher in melting point: 113 °C for the first, 250 °C for the second.

First: CC(C)Oc1cc(F)c2c(c1)Oc1cc(F)ccc1S2(=O)=O
Second: COCC(C)Oc1cc(Oc2ccc(S(C)(=O)=O)nc2)cc2cc(C3=NCC(CCO)S3)[nH]c12 (centres undefined)
The melting point of the first is higher: 148 to 151 °C for the first, 138 to 139 °C for the second.

First: O=C(O)CC(CNC(=O)C1Cc2ccccc2N1S(=O)(=O)c1ccc(-c2cccc(C(F)(F)F)c2)cc1)c1ccccc1 (centres undefined)
Second: CN(CCCCc1ccc(NC(=O)c2cccc3c(=O)c4ccccc4[nH]c23)cc1)Cc1ccc(F)cc1
The melting point of the first is lower: 90 °C for the first, 151 °C for the second.

Compared with `Nc1nc(F)nc(OC(F)(F)F)n1`, `O=C(O)c1cccc(OC(F)(F)C(F)(F)F)c1` is lower in melting point: 138 to 139 °C for the first, 131 to 134 °C for the second.

First: COc1ccc(C(=O)OC(=O)NC(CO)Cc2ccc(O)cc2)cc1OC (centres undefined)
Second: COc1cc(CCC=CC(C)=O)ccc1OCc1ccccc1
The melting point of the first is higher: 152 to 155 °C for the first, 59.5 to 60.5 °C for the second.

Compared with `CC1(C)CCC(C)(C)c2cc(CC#Cc3ccc(C(N)=O)cc3)ccc21`, `NC(=O)C1=CCCc2cc(Sc3cccc(F)c3)ccc21` is lower in melting point: 207 to 208 °C for the first, 168 to 170 °C for the second.

First: O=C(O)CN1CC(c2ccc(Cl)cc2)CC1=O (centres undefined)
Second: Cn1ncc(N(CCCO)Cc2ccccc2)c(Cl)c1=O
The melting point of the first is higher: 142 to 143 °C for the first, 94 to 95 °C for the second.

First: CCN(CC)CCCNc1nnc(C)c2c1cc1n2CCCC1
Second: O=C(NCCN1CCCC1)Nc1ccc(-c2cnc(COCc3cc4ccccc4o3)o2)cc1
The melting point of the first is higher: 171 to 172 °C for the first, 124 to 126 °C for the second.

First: CCOC(=O)c1cc2c(C(F)(F)F)cc(OCC(=O)OC(C)(C)C)cc2n1C
Second: CC(C)OC(=O)COCc1cc(-c2nn(C)c(C(F)(F)F)c2Cl)c(F)cc1Cl
The melting point of the first is higher: 98 to 100 °C for the first, 55 °C for the second.

First: COCCOc1ccc(-c2cncc(C#N)c2Nc2ccc3[nH]ccc3c2C)cc1OC
Second: CC1(C)Oc2ccc(C#N)cc2[C@@H](NC(=O)c2ccccn2)[C@@H]1O (relative stereo)
The melting point of the first is higher: 208 to 210 °C for the first, 165 °C for the second.

First: OCCCSc1ccc2nccn2n1
Second: COc1nc(SC)cc2cnc(-c3ccccc3)n12
The melting point of the first is lower: 108 to 109 °C for the first, 134 °C for the second.

First: CC(=O)NCCC[C@H]1NC(=O)[C@@H](Cc2cn(C)c3ccccc23)NC1=O
Second: CCNC=C(C(=O)C=Cc1ccccc1)C(=O)OC
The melting point of the first is higher: 138 °C for the first, 92 to 94 °C for the second.

First: CN(C)c1c(O)ccc2c1CCC1C2CCC2(C)C(=O)CCC12 (centres undefined)
Second: CC12CCC3C(CCC4(O)CC(O)CCC34CO)C1(O)CCC2c1ccnnc1 (centres undefined)
The melting point of the first is higher: 155 to 156 °C for the first, 138 to 140 °C for the second.

First: NC(=S)Nc1ncccn1
Second: COC(=O)CC1(O)C=CC(=O)C=C1
The melting point of the first is higher: 262 to 264 °C for the first, 53 to 54 °C for the second.

Compared with `CCCCOCCOc1ccc(-c2ccc3c(c2)C=C(C(=O)Nc2ccc(N(C)Cc4nncn4CCC)cc2)CCN3CC(C)C)cc1`, `CC1(C)CN2C(N)=NC(c3ccc(OC(F)(F)F)cc3)(c3cccc(-c4cccnc4F)c3)C2=N1` (centres undefined) is lower in melting point: 134 to 136 °C for the first, 89 to 97 °C for the second.

Work on `O=Cc1ccc(-c2ccc(O)cc2)c2sccc12` yielded a melting point of 202 to 204 °C.
